Test results as given in US8343729B2, “Luciferin luminescent substrate of marine ostracod crustacean and method for production thereof” (National Institute of Advanced Industrial Science and …, priority 2005, dated 2013).

System: Marine ostracod crustacean luciferase
Test: Measurement of luminescence spectra of marine ostracod crustacean luciferins with luciferase
Assay type: biochemical
Conditions: luciferase 100 ng/mL, 50 mM Tris-HCl buffer (pH 7.5)

| Structure (SMILES) | direction of shift of biological luminescence wavelength compared with native luciferin (11) | shift of luminescence maximum wavelength to the long wavelength side compared with native luciferin (spectrum integrated for 30 seconds) |
| --- | --- | --- |
| CC(c1ccccc1)c1nc2c(CCCNC(=N)N)[nH]c(-c3c[nH]c4ccccc34)cn-2c1=O (centres unmarked) [Compound 32] | shifted to the long wavelength |  |
| CC[C@H](C)c1nc2c(/C=C/CNC(=N)N)[nH]c(-c3c[nH]c4ccccc34)cn-2c1=O [Compound 17] |  | about 15 nm |
| CCC(c1ccccc1)c1nc2c(CCCNC(=N)N)[nH]c(-c3c[nH]c4ccccc34)cn-2c1=O (centres unmarked) [Compound 34] | shifted to the long wavelength |  |
| N=C(N)NCCCc1[nH]c(-c2c[nH]c3ccccc23)cn2c(=O)c(Cc3ccccc3)nc1-2 [Compound 30] | shifted to the short wavelength |  |
| CCC(C)c1nc2c(CCCNC(=N)N)[nH]c(-c3ccc4ccccc4c3)cn-2c1=O (centres unmarked) [Compound 36] | shifted to the short wavelength |  |
